Experimental data as given in patent US12595253B2, “Benzamides of pyrazolylamino-pyrimidinyl derivatives, and compositions and methods thereof” (LYNK PHARMACEUTICALS CO. LTD., priority 2019, dated 2026).

Experiments:
JAK2 = target: T1, JAK2 (Homo sapiens, UniProt O60674); test: JAK2 microfluidic kinase assay (Caliper EZ Reader II, FAM labeled peptide substrate); assay type: biochemical
T1 construct: purchased Carna Biosciences
In short: (§1)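 Activity measured in 50 mM HEPES, 0.01% Brij35, 10 mM MgCl2, 2 mM DTT by microfluidic separation of phosphorylated FAM peptide. Enzyme conditions set for 10% substrate conversion.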

TYK2 = target: T2, TYK2 (Homo sapiens, UniProt P29597); test: TYK2 microfluidic kinase assay (Caliper EZ Reader II, FAM labeled peptide substrate); assay type: biochemical
T2 construct: purchased Carna Biosciences
In short: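 Human JAK enzymes in 50 mM HEPES, 0.01% Brij35, 10 mM MgCl2, 2 mM DTT, tuned to 10% conversion of FAM-peptide; compounds (3-fold dilutions, top 5 μM, 1% DMSO) pre-incubated 10 min. Reaction times: JAK1 120 min, JAK2 20 min, JAK2V617F 30 min, TYK2 10 min; EDTA stop, microfluidic conversion read, IC50 from % inhibition curves.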

[1] = Liver microsomes study, Phase I stability (RLM); assay type: in vitro ADME, rat; settings: pH 7.4; rat liver microsomes 0.5 mg/mL, 1 μM test article; read-out: RLM Clint
Experimental: (§2) Commercially available liver microsomes (MsLM vendor: XENOTECH; RLM, DLM, MkL, HLM vendor: Corning) were used for study the Phase I stability of test articles. […] The reaction was initiated by addition of 80 μL of the NADPH regenerating system to 320 µL of each incubation mixture per time point. […] The 0-minute samples were prepared by addition of an 80 μL aliquot of each incubation mixture to 400 μL quench reagent to precipitate proteins. And then a 20 μL aliquot of the NADPH regenerating system was added. At 10, 30, and 90 minutes, the reaction will be stopped by the addition of cold acetonitrile solution containing tolbutamide and propanolol served as internal standard. The samples taken at all time points were centrifuged at 4000×g for 15 minutes. 80 μL of supernatant are taken into 96-well assay plates pre-added with 160 μL ultrapure water, and then analyzed by LC/MS/MS(Shimadzu LC30AD & API4000/API5000)). Concentrations of test articles, control compounds in the samples were determined by using LC/MS/MS) method. Plotting of the chromatograms and peak area integrations are carried out by Analyst (AB Sciex).
(§3) In the determination of the in vitro elimination constant, ke, of the control compounds, the analyte/internal standard peak area ratios will be converted to percentage remaining (% Remaining) with the following equation: […]
(§4) The slope was measured by the natural logarithm of the percentage of the residual compound and time, T½ and CLint were calculated according to the following formulas, V/M was equal to the 1/concentration of protein.

[2] = Liver microsomes study, Phase I stability (HLM); assay type: in vitro ADME, human; settings: pH 7.4; human liver microsomes 0.5 mg/mL, 1 μM test article; read-out: HLM Clint
Experimental: as §2, §3, §4

JAK1 = target: T3, JAK1 (Homo sapiens, UniProt P23458); test: JAK1 microfluidic kinase assay (Caliper EZ Reader II, FAM labeled peptide substrate); assay type: biochemical; settings: IC50 JAK1 (5 nM) (1 m MATP), JAK1 5 nM, 1 mM ATP
T3 construct: purchased Carna Biosciences
In short: as §1

JAK2V617F = target: T4, JAK2V617F (Homo sapiens, UniProt O60674, V617F); test: JAK2V617F microfluidic kinase assay (Caliper EZ Reader II, FAM labeled peptide substrate); assay type: biochemical; settings: JAK2V617F 2.5 nM, 1 mM ATP
T4 construct: purchased Carna Biosciences
In short: as §1

[3] = IC50 JAK2 ([…]) (1 mM ATP), 1 mM ATP
[4] = IC50 TYK2 (10 nM) (Km ATP), TYK2 10 nM, Km ATP
[5] = IC50 TYK2 ([…]) (1 mM ATP), TYK2 […], 1 mM ATP
[6] = IC50 JAK2 ([…]) (Km ATP), Km ATP

T1 sequence (O60674 whole entry): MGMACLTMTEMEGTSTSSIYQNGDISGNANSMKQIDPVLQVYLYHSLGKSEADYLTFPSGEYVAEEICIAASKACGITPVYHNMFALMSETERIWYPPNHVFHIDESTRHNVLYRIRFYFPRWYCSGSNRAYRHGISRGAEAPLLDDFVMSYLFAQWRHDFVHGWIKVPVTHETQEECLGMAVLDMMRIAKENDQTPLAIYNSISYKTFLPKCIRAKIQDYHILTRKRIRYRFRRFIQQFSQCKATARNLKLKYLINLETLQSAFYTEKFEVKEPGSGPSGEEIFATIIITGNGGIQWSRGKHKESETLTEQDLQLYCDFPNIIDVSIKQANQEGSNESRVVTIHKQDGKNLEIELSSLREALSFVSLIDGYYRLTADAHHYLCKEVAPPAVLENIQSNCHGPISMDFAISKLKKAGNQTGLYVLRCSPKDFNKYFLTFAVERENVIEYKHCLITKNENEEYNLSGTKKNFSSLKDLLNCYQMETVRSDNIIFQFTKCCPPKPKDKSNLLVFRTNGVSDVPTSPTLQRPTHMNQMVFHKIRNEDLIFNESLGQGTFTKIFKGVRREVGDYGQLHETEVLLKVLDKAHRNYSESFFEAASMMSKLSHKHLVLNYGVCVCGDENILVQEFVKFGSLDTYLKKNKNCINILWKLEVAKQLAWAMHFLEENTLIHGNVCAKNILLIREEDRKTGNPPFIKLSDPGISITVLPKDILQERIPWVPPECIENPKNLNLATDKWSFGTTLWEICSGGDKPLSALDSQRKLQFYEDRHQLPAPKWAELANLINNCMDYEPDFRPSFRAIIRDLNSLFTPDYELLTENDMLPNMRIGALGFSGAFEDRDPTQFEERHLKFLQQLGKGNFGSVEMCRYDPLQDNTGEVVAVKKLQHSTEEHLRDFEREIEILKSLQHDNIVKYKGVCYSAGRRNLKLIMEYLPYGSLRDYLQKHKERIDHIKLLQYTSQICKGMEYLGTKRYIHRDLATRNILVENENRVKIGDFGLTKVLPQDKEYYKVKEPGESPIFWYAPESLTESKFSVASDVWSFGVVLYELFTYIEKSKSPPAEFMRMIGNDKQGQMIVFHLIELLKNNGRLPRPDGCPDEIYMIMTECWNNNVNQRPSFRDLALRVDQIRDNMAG
T4 sequence (O60674 whole entry V617F): as the sequence (O60674 whole entry) above, with V617F counted along it
T2 sequence (P29597 whole entry): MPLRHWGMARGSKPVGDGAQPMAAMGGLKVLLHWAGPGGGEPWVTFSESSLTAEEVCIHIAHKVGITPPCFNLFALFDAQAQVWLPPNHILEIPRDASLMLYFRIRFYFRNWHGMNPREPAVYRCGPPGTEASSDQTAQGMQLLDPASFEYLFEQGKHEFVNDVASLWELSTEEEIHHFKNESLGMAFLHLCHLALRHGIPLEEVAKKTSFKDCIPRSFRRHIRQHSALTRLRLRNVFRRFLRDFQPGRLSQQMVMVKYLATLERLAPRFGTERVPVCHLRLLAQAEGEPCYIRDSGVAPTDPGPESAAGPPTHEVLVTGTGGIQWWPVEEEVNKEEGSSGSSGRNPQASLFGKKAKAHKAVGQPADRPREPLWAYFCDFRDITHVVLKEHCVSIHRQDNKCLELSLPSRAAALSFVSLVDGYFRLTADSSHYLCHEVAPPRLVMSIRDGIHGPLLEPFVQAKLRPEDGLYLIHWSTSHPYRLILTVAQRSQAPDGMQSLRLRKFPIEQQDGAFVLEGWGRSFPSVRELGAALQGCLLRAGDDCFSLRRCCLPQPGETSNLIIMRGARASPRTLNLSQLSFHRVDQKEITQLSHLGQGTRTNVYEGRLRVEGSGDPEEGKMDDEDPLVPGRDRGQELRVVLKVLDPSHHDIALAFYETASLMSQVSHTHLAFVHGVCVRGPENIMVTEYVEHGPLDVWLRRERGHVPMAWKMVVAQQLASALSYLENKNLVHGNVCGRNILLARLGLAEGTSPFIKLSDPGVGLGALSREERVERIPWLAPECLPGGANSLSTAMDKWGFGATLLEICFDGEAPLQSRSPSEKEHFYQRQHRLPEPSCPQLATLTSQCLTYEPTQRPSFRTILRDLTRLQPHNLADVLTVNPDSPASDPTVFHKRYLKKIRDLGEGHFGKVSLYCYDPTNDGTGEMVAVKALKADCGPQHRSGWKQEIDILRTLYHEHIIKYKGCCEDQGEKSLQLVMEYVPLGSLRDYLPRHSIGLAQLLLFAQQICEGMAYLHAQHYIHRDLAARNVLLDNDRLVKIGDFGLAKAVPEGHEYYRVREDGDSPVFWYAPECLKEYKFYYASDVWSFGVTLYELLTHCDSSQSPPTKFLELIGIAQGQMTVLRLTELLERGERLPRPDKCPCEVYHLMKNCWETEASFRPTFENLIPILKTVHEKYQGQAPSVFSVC
T3 sequence (P23458 whole entry): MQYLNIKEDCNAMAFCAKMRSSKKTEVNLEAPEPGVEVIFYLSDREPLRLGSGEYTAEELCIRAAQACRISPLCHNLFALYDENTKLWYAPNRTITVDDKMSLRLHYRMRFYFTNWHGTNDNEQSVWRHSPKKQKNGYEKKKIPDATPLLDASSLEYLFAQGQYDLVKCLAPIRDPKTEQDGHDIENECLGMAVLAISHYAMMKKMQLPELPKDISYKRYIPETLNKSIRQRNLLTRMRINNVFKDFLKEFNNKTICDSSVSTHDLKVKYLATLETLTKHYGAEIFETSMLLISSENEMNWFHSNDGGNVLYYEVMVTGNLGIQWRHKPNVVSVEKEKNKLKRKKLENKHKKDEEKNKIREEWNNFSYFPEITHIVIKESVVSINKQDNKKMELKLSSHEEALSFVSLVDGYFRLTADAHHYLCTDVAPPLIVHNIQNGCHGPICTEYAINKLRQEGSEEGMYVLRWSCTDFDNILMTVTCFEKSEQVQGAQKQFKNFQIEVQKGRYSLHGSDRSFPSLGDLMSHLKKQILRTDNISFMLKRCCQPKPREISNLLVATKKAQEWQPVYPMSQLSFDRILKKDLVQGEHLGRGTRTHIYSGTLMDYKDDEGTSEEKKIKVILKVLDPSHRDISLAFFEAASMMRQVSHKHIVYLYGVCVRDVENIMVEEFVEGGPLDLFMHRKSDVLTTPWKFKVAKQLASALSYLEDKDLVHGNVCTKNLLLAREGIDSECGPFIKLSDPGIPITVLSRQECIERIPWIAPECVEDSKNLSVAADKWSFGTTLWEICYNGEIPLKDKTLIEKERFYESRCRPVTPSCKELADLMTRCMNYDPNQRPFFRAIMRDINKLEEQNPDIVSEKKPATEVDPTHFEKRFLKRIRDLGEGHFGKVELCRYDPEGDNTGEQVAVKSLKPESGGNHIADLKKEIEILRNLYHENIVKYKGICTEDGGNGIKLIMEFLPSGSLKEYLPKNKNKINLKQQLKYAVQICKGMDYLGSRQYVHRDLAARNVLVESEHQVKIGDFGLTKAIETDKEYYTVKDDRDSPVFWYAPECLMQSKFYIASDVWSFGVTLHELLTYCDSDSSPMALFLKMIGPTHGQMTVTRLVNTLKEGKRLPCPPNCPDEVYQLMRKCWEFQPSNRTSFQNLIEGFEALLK

| SMILES | IC50 (JAK2; [3]) [µM] | IC50 (TYK2; [4]) [µM] | microsomal CLint at 1 μM [1] [µL/min/mg] | microsomal CLint at 1 μM [2] [µL/min/mg] | IC50 (JAK1) [µM] | IC50 (TYK2; [5]) [µM] | IC50 (JAK2; [6]) [µM] | IC50 (JAK2V617F) [µM] |
| --- | --- | --- | --- | --- | --- | --- | --- | --- |
| Cc1cnc(Nc2cnn(C3CC(C#N)C3)c2)nc1-c1ccc(C(=O)NCC#N)cc1 (centres unmarked) [Example 106, 4-(2-((1-(3-Cyanocyclobutyl)-1H-pyrazol-4-yl)amino)-5-methylpyrimidin-4-yl)-N-(cyanomethyl)benzamide] | 0.00217 | – | 38.4 | 11.1 | 0.0149 | – | 0.00025 | 0.0237 |
| CO[C@H]1CC[C@H](n2cc(Nc3ncc(C)c(-c4ccc(C(=O)N[C@@H](C)C#N)cc4)n3)cn2)CC1 [Example 91, N—((S)-1-cyanoethyl)-4-(2-((1-(trans-4-methoxycyclohexyl)-1H-pyrazol-4-yl)amino)-5-methylpyrimidin-4-yl)benzamide] | 0.00035 | – | 80.1 | 6.7 | 0.012 | – | – | 0.0158 |
| C[C@H](C#N)NC(=O)c1ccc(-c2nc(Nc3cnn(C)c3)ncc2Cl)cc1 [Example 97, (R)-4-(5-Chloro-2-((1-methyl-1H-pyrazol-4-yl)amino)pyrimidin-4-yl)-N-(1-cyanoethyl)benzamide] | – | – | 16.9 | 2.39 | 0.0113 | 0.218 | – | 0.147 |
| Cc1cnc(Nc2cnn(C(C)C(F)(F)F)c2)nc1-c1ccc(C(=O)NCC#N)cc1 (centres unmarked) [Example 112, N-(cyanomethyl)-4-(5-methyl-2-((1-(1,1,1-trifluoropropan-2-yl)-1H-pyrazol-4-yl)amino)pyrimidin-4-yl)benzamide] | 0.079 | – | 76.4 | 49.1 | 0.00643 | – | – | 0.119 |
| Cc1cnc(Nc2cnn(C3CCN(C(=O)C4(F)CC4)CC3)c2)nc1-c1ccc(C(=O)NCC#N)cc1 [Example 152, N-(cyanomethyl)-4-(2-((1-(1-(1-fluorocyclopropanecarbonyl)piperidin-4-yl)-1H-pyrazol-4-yl)amino)-5-methylpyrimidin-4-yl)benzamide] | < 0.00025 | – | 85.9 | 96 | 0.0149 | – | – | 0.00067 |
| Cc1cnc(Nc2cnn(C3CC3)c2)nc1-c1ccc(C(=O)N2CC(C#N)C2)c(F)c1 [Example 140, 1-(4-(2-((1-Cyclopropyl-1H-pyrazol-4-yl)amino)-5-methylpyrimidin-4-yl)-2-fluorobenzoyl)azetidine-3-carbonitrile] | 0.155 | – | 628 | 9.1 | 0.257 | – | 0.0064 | 0.341 |
| Cc1cnc(Nc2cnn(C)c2)nc1-c1ccc(C(=O)N[C@H](C)C#N)cc1 [Example 101, (R)—N-(1-cyanoethyl)-4-(5-methyl-2-((1-methyl-1H-pyrazol-4-yl)amino)pyrimidin-4-yl)benzamide] | – | – | 19.2 | 2 | 0.0751 | – | 0.0045 | 0.362 |
| COCCNC(=O)c1ccc(-c2nc(Nc3cnn(C)c3)ncc2C)cc1 [Example 6, N-(2-Methoxyethyl)-4-(5-methyl-2-((1-methyl-1H-pyrazol-4-yl)amino)pyrimidin-4-yl)benzamide] | – | – | 2.58 | 6.6 | 0.0754 | – | 0.0084 | 0.669 |
| Cc1cnc(Nc2cnn(C3CCN(C(=O)[C@H]4CC4(C)C)CC3)c2)nc1-c1ccc(C(=O)NCC#N)cc1 [Example 143, (S)—N-(cyanomethyl)-4-(2-((1-(1-(2,2-dimethylcyclopropanecarbonyl)piperidin-4-yl)-1H-pyrazol-4-yl)amino)-5-methylpyrimidin-4-yl)benzamide] | 0.0004 | – | 599 | 1430 | 0.0154 | – | – | 0.0173 |
| Cc1cnc(Nc2cnn(C3C[C@@H](C)O[C@@H](C)C3)c2)nc1-c1ccc(C(=O)N[C@@H](C)C#N)cc1 (stereo partly drawn) [Example 73, N—((S)-1-cyanoethyl)-4-(2-((1-(cis-2,6-dimethyltetrahydro-2H-pyran-4-yl)-1H-pyrazol-4-yl)amino)-5-methylpyrimidin-4-yl)benzamide] | – | – | 259 | 268 | 0.0344 | 0.0744 | – | 0.00815 |
| Cc1cnc(Nc2cnn(C3CCOCC3)c2)nc1-c1ccc(C(=O)NCC2(C#N)CC2)cc1 [Example 37, N-((1-cyanocyclopropyl)methyl)-4-(5-methyl-2-((1-(tetrahydro-2H-pyran-4-yl)-1H-pyrazol-4-yl)amino)pyrimidin-4-yl)benzamide] | 0.0505 | 0.0288 | 40.7 | 20.7 | – | – | 0.00054 | – |

Now from value to molecule:

| IC50 (JAK2; [3]) [µM] | IC50 (TYK2; [4]) [µM] | microsomal CLint at 1 μM [1] [µL/min/mg] | microsomal CLint at 1 μM [2] [µL/min/mg] | IC50 (JAK1) [µM] | IC50 (TYK2; [5]) [µM] | IC50 (JAK2; [6]) [µM] | IC50 (JAK2V617F) [µM] | SMILES |
| --- | --- | --- | --- | --- | --- | --- | --- | --- |
| 0.00069 | 0.012 | 54.9 | 68.4 | – | – | – | – | Cc1cnc(Nc2cnn(C3CCN(C(=O)C4CC4)CC3)c2)nc1-c1ccc(C(=O)N[C@@H](C)C#N)cc1 [Example 163, (S)—N-(1-cyanoethyl)-4-(2-((1-(1-(cyclopropanecarbonyl)piperidin-4-yl)-1H-pyrazol-4-yl)amino)-5-methylpyrimidin-4-yl)benzamide] |
| 0.00059 | – | 91.8 | 23.1 | 0.00085 | 0.00104 | – | – | Cc1cnc(Nc2cnn(C3CCN(C)CC3)c2)nc1-c1ccc(C(=O)N[C@H](C#N)C2CC2)cc1 [Example 180, (S)—N-(cyano(cyclopropyl)methyl)-4-(5-methyl-2-((1-(1-methylpiperidin-4-yl)-1H-pyrazol-4-yl)amino)pyrimidin-4-yl)benzamide] |
| 0.0704 | 0.0172 | 110 | 16.9 | – | – | 0.00073 | – | Cc1cnc(Nc2cnn(C3CC3)c2)nc1-c1ccc(C(=O)NC2(C#N)CC2)cc1 [Example 160, N-(1-cyanocyclopropyl)-4-(2-((1-cyclopropyl-1H-pyrazol-4-yl)amino)-5-methylpyrimidin-4-yl)benzamide] |
| 0.00086 | – | 115 | 45.7 | 0.00128 | 0.00133 | – | – | Cc1cnc(Nc2cnn(C3CCN(C)CC3)c2)nc1-c1ccc(C(=O)N[C@H](C#N)C(C)C)cc1 [Example 174, (S)—N-(1-cyano-2-methylpropyl)-4-(5-methyl-2-((1-(1-methylpiperidin-4-yl)-1H-pyrazol-4-yl)amino)pyrimidin-4-yl)benzamide] |
| < 0.00025 | – | 51.9 | 180 | 0.00865 | 0.00058 | – | – | CC[C@@H](C#N)NC(=O)c1ccc(-c2nc(Nc3cnn(C4CC(C)(C)OC(C)(C)C4)c3)ncc2Cl)cc1 [Example 182, (S)-4-(5-Chloro-2-((1-(2,2,6,6-tetramethyltetrahydro-2H-pyran-4-yl)-1H-pyrazol-4-yl)amino)pyrimidin-4-yl)-N-(1-cyanopropyl)benzamide] |
| 0.0156 | – | 161 | 7.27 | 0.0104 | 0.0221 | – | – | Cc1cnc(Nc2cnn(C(C)C(F)(F)F)c2)nc1-c1ccc(C(=O)N[C@@H](C)C#N)cc1 (stereo partly drawn) [Example 166, N—((S)-1-Cyanoethyl)-4-(5-methyl-2-((1-(1,1,1-trifluoropropan-2-yl)-1H-pyrazol-4-yl)amino)pyrimidin-4-yl)benzamide] |
